Test results: publication PMC12118597 (Science Advances, 2025)
Where “and” joins values, the source holds several entries; their conditions need not be identical. Identical values can stand only once. Like-named read-outs stand apart in the source and are kept apart here.

Legend:
[1] = target: T1, SARS-CoV-2 NSP3 macrodomain (Mac1) (Severe acute respiratory syndrome coronavirus 2, UniProt P0DTD1); assay: biochemical; assay type: binding
[2] = target: T1, SARS-CoV-2 NSP3 macrodomain (Mac1); assay type: binding; conditions: for Total number of conformations: ligand conformations modeled in the crystal structure; for 2*(1-BDC) (%): occupancy estimate from PanDDA; for Hit (PanDDA run, DMSO background map) / 1-BDC (PanDDA run, DMSO background map) / Hit (PanDDA run, overall) / Modeling comment (PanDDA run, overall): crystal soak concentration 20 mM; for 1-BDC (PanDDA run, DMSO background map): event 1
[3] = HTRF binding curve, SARS-CoV-2 Mac1
[4] = SARS CoV-2 macrodomain HTRF assay, dose-response
[5] = PanDDA background density correction factor
[6] = crystal soak 10 mM, P43 crystal form
[7] = ligand-bound crystal structure obtained (TRUE)
[8] = refined crystallographic occupancy
[9] = site occupied in X-ray crystal structure
[10] = PanDDA background density correction, 1-BDC
[11] = TRUE = crystal structure with ligand obtained
[12] = site of ligand in X-ray crystal structure
[13] = TRUE = ligand-bound crystal structure obtained (PDB code given)
[14] = site of Mac1 occupied in the X-ray crystal structure (Adenosine or Distal)
[15] = soak concentration 10 mM, P43 crystals

| SMILES | Occupancy difference (refined_occupancy - 2*(1-BDC)) [2] | 1-BDC [2, 5] | PanDDA run, overall: Hit [2, 6] | PanDDA run, DMSO background map: 1-BDC ([2]; crystal soak 10 mM) | PanDDA run, DMSO background map: Hit ([2]; crystal soak 10 mM) | Total number of conformations [2] | X-ray crystal structure [2, 7] | 2*(1-BDC) (%) [2] [%] | Refined ligand occupancy (%) [2, 8] [%] | Binding site [2, 9] | further results |
| --- | --- | --- | --- | --- | --- | --- | --- | --- | --- | --- | --- |
| OC[C@@H]1C[C@H](O)CN1c1ncnc2[nH]ccc12 [AVI-610] | 18 | 0.21 | TRUE | 0.34 and 0.31 and 0.21 and 0.26 | TRUE | 1 | TRUE | 42 | 60 | Adenosine | Hill slope [1, 3]: 1.2; Hill slope [1, 4]: 1.2 |
| OC1CCC(O)(CNc2ncnc3[nH]ccc23)CC1 (stereo not shown) [AVI-6220] |  |  |  |  |  |  | TRUE | 14 |  | Adenosine | Hill slope [1, 3]: 1.3; Hill slope [1, 4]: 1.3; 1-BDC [2, 10]: 0.07; Refined ligand occupancy (%) ([2]; crystallographic refinement): 14% |
| OCC1CCC2(CCOCC2)CN1c1ncnc2[nH]ccc12 (stereo not shown) [AVI-4065] |  |  |  |  |  |  |  |  |  |  | Hill slope [1, 3]: 1.2; Hill slope [1, 4]: 1.2 |
| OC1(CNc2ncnc3[nH]ccc23)CCC2(CC1)OCCO2 [AVI-4315] |  |  |  |  |  |  |  |  |  |  | Hill slope [1, 3]: 1.2; Hill slope [1, 4]: 1.2 |
| C[C@@H](O)[C@H](CO)Nc1ncnc2[nH]ccc12.O=C(O)C(F)(F)F [AVI-3730] | 0 | 0.14 | TRUE | 0.14 | TRUE | 1 |  | 28 | 28 |  | X-ray crystal structure [2, 11]: TRUE; Binding site [2, 12]: Adenosine |
| O=C(O)C(F)(F)F.OC1c2ccccc2CC1Nc1ncnc2[nH]ccc12 (stereo not shown) [AVI-3634] |  |  |  |  |  |  |  |  |  |  | PanDDA run, overall: Modeling comment ([2]; crystal soak 10 mM): TFA only |
| OCC(Nc1ncnc2[nH]ccc12)c1ccccc1 (stereo not shown) [AVI-3715] | 0 | 0.18 | TRUE | 0.18 | TRUE | 1 |  | 36 | 36 |  | X-ray crystal structure [2, 11]: TRUE; Binding site [2, 12]: Adenosine |
| CN1CCN(c2ncnc3[nH]ccc23)C(CO)C1 (stereo not shown) [AVI-3721] | 0 | 0.06 | TRUE | 0.06 | TRUE | 2 | TRUE | 12 | 12 | Adenosine |  |
| CC(Nc1ncnc2[nH]ccc12)C1(O)CCCCC1 (stereo not shown) [AVI-4321] |  |  |  |  |  |  |  |  |  |  | Hill slope [1, 3]: 1.2; Hill slope [1, 4]: 1.2 |
| OCC1CC2(CCCCC2)CN1c1ncnc2[nH]ccc12 (stereo not shown) [AVI-3727] | 0 | 0.29 | TRUE | 0.29 | TRUE | 1 | TRUE | 58 | 58 | Adenosine | PanDDA run, overall: Modeling comment ([2]; crystal soak 10 mM): Distal site, weak density, not modeled |
| Cc1cc2c(=O)n(CCN3C(=O)c4ccccc4S3(=O)=O)nnc2s1 [AVI-341] | 14 | 0.18 |  |  |  | 1 |  | 36 | 50 |  | X-ray crystal structure [2, 13]: TRUE; Hit (PanDDA run, DMSO background map) [2]: TRUE; 1-BDC (PanDDA run, DMSO background map) [2]: 0.19; Hit (PanDDA run, overall) ([2]; P43 crystals): TRUE; Modeling comment (PanDDA run, overall) ([2]; P43 crystals): Duplicate, not modeled; Binding site [2, 14]: Adenosine; PanDDA run, DMSO background map: 1-BDC ([2]; soak concentration 10 mM): 0.18; PanDDA run, DMSO background map: Hit ([2]; soak concentration 10 mM): TRUE; PanDDA run, DMSO background map: Modeled ([2]; soak concentration 10 mM): TRUE; PanDDA run, overall: Hit [2, 15]: TRUE; PanDDA run, overall: Modeled [2, 15]: TRUE |
| OCC(Cc1cccs1)Nc1ncnc2[nH]ccc12 (stereo not shown) [AVI-3711] | 0 | 0.21 | TRUE | 0.21 | TRUE | 1 |  | 42 | 42 |  | X-ray crystal structure [2, 11]: TRUE; Binding site [2, 12]: Adenosine |
| OC1CCN(c2ncnc3[nH]ccc23)C1 (stereo not shown) [AVI-3661] |  |  | TRUE | 0.15 | TRUE |  | TRUE | 30 |  | Adenosine | 1-BDC [2, 10]: 0.15; PanDDA run, overall: Modeled [2, 6]: TRUE; Refined ligand occupancy (%) ([2]; crystallographic refinement): 40% |
| O=C(Nc1ccsc1C(=O)O)c1ccc2c(c1)OCO2 [AVI-316] | 0 | 0.07 |  |  |  | 1 |  | 14 | 14 |  | X-ray crystal structure [2, 13]: TRUE; Hit (PanDDA run, DMSO background map) [2]: TRUE; 1-BDC (PanDDA run, DMSO background map) [2]: 0.12; Hit (PanDDA run, overall) ([2]; P43 crystals): TRUE; Modeling comment (PanDDA run, overall) ([2]; P43 crystals): Duplicate, not modeled; Binding site [2, 14]: Adenosine; PanDDA run, DMSO background map: 1-BDC ([2]; soak concentration 10 mM): 0.07; PanDDA run, DMSO background map: Hit ([2]; soak concentration 10 mM): TRUE; PanDDA run, DMSO background map: Modeled ([2]; soak concentration 10 mM): TRUE; PanDDA run, overall: Hit [2, 15]: TRUE; PanDDA run, overall: Modeled [2, 15]: TRUE |
| OCC1CC2(CCOCC2)CN1c1ncnc2[nH]ccc12 (stereo not shown) [AVI-3707] | 0 | 0.21 | TRUE | 0.21 | TRUE | 1 | TRUE | 42 | 42 | Adenosine | PanDDA run, overall: Modeling comment ([2]; crystal soak 10 mM): Distal site, weak density, not modeled |
| OCC(Nc1ncnc2[nH]ccc12)C1CCCC1 (stereo not shown) [AVI-3649] | 0 | 0.16 | TRUE | 0.16 | TRUE | 1 |  | 32 | 32 |  | X-ray crystal structure [2, 11]: TRUE; PanDDA run, overall: Modeled [2, 6]: TRUE; Binding site [2, 12]: Adenosine |
| O[C@@H]1CN(c2ncnc3[nH]ccc23)C[C@H]1F [AVI-616] | 0 | 0.2 | TRUE | 0.2 | TRUE | 1 |  | 40 | 40 |  | X-ray crystal structure [2, 11]: TRUE; Binding site ([2]; site of Mac1 occupied in the X-ray crystal structure): Adenosine |
| OCC(O)C1CCCN1c1ncnc2[nH]ccc12 (stereo not shown) [AVI-3701] | 0 | 0.18 | TRUE | 0.18 | TRUE | 1 | TRUE | 36 | 36 | Adenosine |  |
